pIC50: −log10 of the molar value. Structures can show the parent of a compound that is named as a salt.

One test relates to amyloid β production in transfected H4 (human neuroglioma) cells stably expressing APP constructs. As to the kind of experiment: In vitro cell-based assay of inhibitors of amyloid β production (ELISA). The conditions noted are these: Homo sapiens, 16 h, transfected H4 cells stably expressing APP; approx. 16 h incubation; amyloid β in medium by ELISA; read-out: ACTIVITY (IC50, inhibition of amyloid β production). The essentials: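 Plate wt/variant APP cells; ≥6 h later swap to medium + compound (10-100 μM screen); incubate ~16 h; sample medium; Aβ ELISA with C-terminal capture / N-terminal detection Abs; quantify vs Aβ standard curve.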
In general terms: In an ELISA, binding on a coated surface is turned into a signal by an enzyme label.
One may read the pIC50 as the IC50 on a negative log10 scale, so that one unit is a factor of ten. Consider `O=S(=O)(c1ccc(Cl)cc1)N(Cc1ccccc1Cn1ccnc1)c1cc(F)ccc1F` [Example 772, 4-chloro-N-(2,5-difluorophenyl)-N-[2-(1H-imidazol-1-ylmethyl)benzyl]benzenesulfonamide], for which the negative logarithm of the IC50 (pIC50) was 6.30 to 7.00. Still for that read-out and setting: the result for `O=C(C1CC1c1ccccc1)N1CCCCC1CCOc1ccccc1CN(c1cc(F)ccc1F)S(=O)(=O)c1ccc(Cl)cc1` (stereo not shown) [Example 780, 4-chloro-N-(2,5-difluorophenyl)-N-[2-(2-{1-[(2-phenylcyclopropyl)carbonyl]-2-piperidinyl}ethoxy)benzyl]benzenesulfonamide] reads 6.30 to 7.00; that for `CCCC(C)N(Cc1ccccc1OCCCN1CCCCC1)S(=O)(=O)c1ccc(Cl)cc1` (stereo not shown) [Example 781, 4-chloro-N-(1-methylbutyl)-N-{2-[3-(1-piperidinyl)propoxy]benzyl}benzenesulfonamide hydrochloride], 6.30 to 7.00; that for `O=C(c1cccc2ccccc12)N1CCCCC1CCOc1ccccc1CN(c1cc(F)ccc1F)S(=O)(=O)c1ccc(Cl)cc1` (stereo not shown) [Example 792, 4-chloro-N-(2,5-difluorophenyl)-N-(2-{2-[1-(1-naphthoyl)-2-piperidinyl]ethoxy}benzyl)benzenesulfonamide], 6.30 to 7.00.

On to `CC(c1ccccc1OCCCN(C)S(=O)(=O)c1ccc(Cl)cc1)N(c1cc(F)ccc1F)S(=O)(=O)c1ccc(Cl)cc1` (stereo not shown) [Example 794, 4-chloro-N-[1-(2-{3-[[(4-chlorophenyl)sulfonyl](methyl)amino]propoxy}phenyl)ethyl]-N-(2,5-difluorophenyl)benzenesulfonamide], for which the pIC50 was 6.30 to 7.00. Still for that read-out and setting: under `O=C(c1ccc(F)c(F)c1F)N1CCCCC1CCOc1ccccc1CN(c1cc(F)ccc1F)S(=O)(=O)c1ccc(Cl)cc1` (stereo not shown) [Example 797, 4-chloro-N-(2,5-difluorophenyl)-N-(2-{2-[1-(2,3,4-trifluorobenzoyl)-2-piperidinyl]ethoxy}benzyl)benzenesulfonamide] stands 6.30 to 7.00. As for `COc1ccc([S+]([O-])CCCOc2ccccc2CN(c2cc(F)ccc2F)S(=O)(=O)c2ccc(Cl)cc2)cc1` (stereo not shown) [Example 803, 4-chloro-N-(2,5-difluorophenyl)-N-(2-{3-[(4-methoxyphenyl)sulfinyl]propoxy}benzyl)benzenesulfonamide], the pIC50 is 6.30 to 7.00. Consider `O=S(=O)(c1ccc(Cl)cc1)N(Cc1ccccc1OCCCN1CCCCC1)c1cccc(Br)c1` [Example 804, N-(3-bromophenyl)-4-chloro-N-{2-[3-(1-piperidinyl)propoxy]benzyl}benzenesulfonamide hydrochloride], for which the pIC50 is 6.30 to 7.00.

The same test, now with this note: Homo sapiens, 16 h, transfected H4 cells stably expressing APP; approximately 16 hours incubation; amyloid β in medium by ELISA; read-out: ACTIVITY (IC50, inhibition of amyloid β production).
Consider `O=S(=O)(c1ccccc1)N(Cc1ccccc1OCCCN1CCC(O)C1)c1ccccc1` (stereo not shown) [Example 809, N-{2-[3-(3-hydroxy-1-pyrrolidinyl)propoxy]benzyl}-N-phenylbenzenesulfonamide hydrochloride], for which the pIC50 was 6.30 to 7.00. In the case of `O=S(=O)(c1ccc(Cl)cc1)N(Cc1ccccc1OCCCN1CCCCC1)c1cc(Cl)cc(Cl)c1` [Example 816, 4-chloro-N-(3,5-dichlorophenyl)-N-{2-[3-(1-piperidinyl)propoxy]benzyl}benzenesulfonamide hydrochloride], the pIC50 is 6.30 to 7.00. On to `O=S(=O)(CCCOc1ccccc1CN(c1cc(F)ccc1F)S(=O)(=O)c1ccc(Cl)cc1)c1ccccc1` [Example 818, 4-chloro-N-(2,5-difluorophenyl)-N-{2-[3-(phenylsulfonyl)propoxy]benzyl}benzenesulfonamide], for which the pIC50 is 6.30 to 7.00. `O=S(=O)(c1ccc(Cl)cc1)N(Cc1ccccc1OCCCN1CCCCC1)CC1CCC1` [Example 827, 4-chloro-N-(cyclobutylmethyl)-N-{2-[3-(1-piperidinyl)propoxy]benzyl}benzenesulfonamide hydrochloride]: the pIC50 is 6.30 to 7.00.

Turning to `O=C(/C=C\c1ccccc1)N1CCCCC1CCOc1ccccc1CN(c1cc(F)ccc1F)S(=O)(=O)c1ccc(Cl)cc1` (stereo not shown) [Example 832, 4-chloro-N-(2,5-difluorophenyl)-N-[2-(2-{1-[(2Z)-3-phenyl-2-propenoyl]-2-piperidinyl}ethoxy)benzyl]benzenesulfonamide], the pIC50 is 6.30 to 7.00. Consider `O=S(=O)(c1ccc(Cl)cc1)N(Cc1ccccc1OCCCN1CCC(O)(C(F)(F)F)CC1)c1ccccc1` [Example 833, 4-chloro-N-(2-{3-[4-hydroxy-4-(trifluoromethyl)-1-piperidinyl]propoxy}benzyl)-N-phenylbenzenesulfonamide hydrochloride], for which the pIC50 is 6.30 to 7.00.

On to `O=S(=O)(c1ccc(Cl)cc1)N(Cc1ccccc1OCCCN1CCCCC1)C1CCCC1` [Example 835, 4-chloro-N-cyclopentyl-N-{2-[3-(1-piperidinyl)propoxy]benzyl}benzenesulfonamide hydrochloride], for which the negative logarithm of the IC50 (pIC50) is 6.30 to 7.00.

Regarding `C[C@H](c1ccccc1OCCCN)N(c1cc(F)ccc1F)S(=O)(=O)c1cccc(Cl)c1` [Example 836, N-{(1R)-1-[2-(3-aminopropoxy)phenyl}ethyl}-3-chloro-N-(2,5-difluorophenyl)benzenesulfonamide], the pIC50 was 6.30 to 7.00.

The same test, now with this note: transfected H4 cells stably expressing APP; approx. 16 h incubation; amyloid β in medium by ELISA; read-out: ACTIVITY (IC50, inhibition of amyloid β production).
For the compound `Cc1cccc(C(=O)N(C)CCCOc2ccccc2C(C)N(c2cc(F)ccc2F)S(=O)(=O)c2ccc(Cl)cc2)c1` (stereo not shown) [Example 766], the pIC50 is 6.30 to 7.00. With `CCOc1ccc(C(=O)N(C)CCCOc2ccccc2C(C)N(c2cc(F)ccc2F)S(=O)(=O)c2ccc(Cl)cc2)cc1` (stereo not shown) [Example 768], the pIC50 is 6.30 to 7.00. `CC(c1ccccc1OCCCN(C)S(=O)(=O)/C=C/c1ccccc1)N(c1cc(F)ccc1F)S(=O)(=O)c1ccc(Cl)cc1` (stereo not shown) [Example 773, 4-chloro-N-(2,5-difluorophenyl)-N-(1-{2-[3-(methyl{[(E)-2-phenylethyl]sulfonyl}amino)propoxy]phenyl}ethyl)benzenesulfonamide]: the pIC50 is 6.30 to 7.00.

Regarding `CCCCC(=O)N(CC)CC(C)Oc1ccccc1C(C)N(c1cc(F)ccc1F)S(=O)(=O)c1ccc(Cl)cc1` (stereo not shown) [Example 777, N-{2-[2-(1-{[(4-chlorophenyl)sulfonyl]-2,5-difluoroanilino}ethyl)phenoxy]propyl}-N-ethylpentamide], the pIC50 was 6.30 to 7.00. On to `CCCC(C)N(Cc1ccccc1OCCCN1CCCCC1)S(=O)(=O)c1ccc(Cl)cc1` (stereo not shown) [Example 782, 4-chloro-N-(1-methylbutyl)-N-{2-[3-(1-piperidinyl)propoxy]benzyl}benzenesulfonamide hydrochloride], for which the pIC50 is 6.30 to 7.00. For `O=C(c1ccccc1F)N1CCCCC1CCOc1ccccc1CN(c1cc(F)ccc1F)S(=O)(=O)c1ccc(Cl)cc1` (stereo not shown) [Example 787], the pIC50 is 6.30 to 7.00. Still for that read-out and setting: the result for `CC(c1ccccc1OCCCN(C)S(=O)(=O)c1cccc(C(F)(F)F)c1)N(c1cc(F)ccc1F)S(=O)(=O)c1ccc(Cl)cc1` (stereo not shown) [Example 788, N-{3-[2-(1-{[(4-chlorophenyl)sulfonyl]-2,5-difluoroanilino}ethyl)phenoxy]propyl}-N-methyl-3-(trifluoromethyl)benzenesulfonamide] reads 6.30 to 7.00; that for `CC(C)CC(=O)N(C)CCCOc1ccccc1CN(c1cc(F)ccc1F)S(=O)(=O)c1ccc(Cl)cc1` [Example 791, N-{3-[2-({[(4-chlorophenyl)sulfonyl]-2,5-difluoroanilino}methyl)phenoxy]propyl}-N,3-dimethylbutamide], 6.30 to 7.00.

For the compound `CC(c1ccccc1OCCN(C)C(=O)C(F)(F)C(F)(F)C(F)(F)F)N(c1cc(F)ccc1F)S(=O)(=O)c1ccc(Cl)cc1` (stereo not shown) [Example 796, N-{2-[2-(1-{[(4-chlorophenyl)sulfonyl]-2,5-difluoroanilino}ethyl)phenoxy]ethyl}-2,2,3,3,4,4,4-heptafluoro-N-methylbutanamide], the pIC50 was 6.30 to 7.00. As to `CCNC(=O)N(C)CCOc1ccccc1C(C)N(c1cc(F)ccc1F)S(=O)(=O)c1ccc(Cl)cc1` (stereo not shown) [Example 801, 4-chloro-N-(2,5-difluorophenyl)-N-[1-(2-{3-[[(ethylamino)carbonyl](methyl)amino]ethoxy}phenyl)ethyl]benzenesulfonamide], the pIC50 was 6.30 to 7.00.

Still in this test, the particulars now being: transfected H4 cells stably expressing APP; approximately 16 hours incubation; amyloid β in medium by ELISA; read-out: ACTIVITY (IC50, inhibition of amyloid β production).
As to `C[C@@H]1CCC[C@H](C)N1CCCOc1ccccc1CN(c1ccccc1)S(=O)(=O)c1ccc(Cl)cc1` [Example 812, 4-chloro-N-(2-{3-(2R, 6S)-2,6-dimethylpiperidinyl]propoxy}benzyl)-N-phenylbenzenesulfonamide hydrochloride], the pIC50 was 6.30 to 7.00. As to `CC(c1ccccc1OCCCN(C)C(=O)Oc1ccccc1)N(c1cc(F)ccc1F)S(=O)(=O)c1ccc(Cl)cc1` (stereo not shown) [Example 826, phenyl 3-[2-(1-{[(4-chlorophenyl)sulfonyl]-2,5-difluoroanilino}ethyl)phenoxy]propyl(methyl)carbamate], the pIC50 was 6.30 to 7.00. For `CCCCC(CC)C(=O)N(C)CCCOc1ccccc1CN(c1cc(F)ccc1F)S(=O)(=O)c1ccc(Cl)cc1` (stereo not shown) [Example 837, N-{3-[2-({[(4-chlorophenyl)sulfonyl]-2,5-difluoroanilino}methyl)phenoxy]propyl}-2-ethyl N-methylhexanamide], the pIC50 was 6.30 to 7.00. On the same count and under the same terms, under `CC(c1ccccc1OCCCN(C)C(=O)c1ccc(-c2ccccc2)cc1)N(c1cc(F)ccc1F)S(=O)(=O)c1ccc(Cl)cc1` (stereo not shown) [Example 840, N-{3-[2-(1-{[(4-chlorophenyl)sulfonyl]-2,5-difluoroanilino}ethyl)phenoxy]propyl}-N-methyl[1,1′-biphenyl]-4-carboxamide] stands 6.30 to 7.00; under `CN(CCCOc1ccccc1CN(c1cc(F)ccc1F)S(=O)(=O)c1ccc(Cl)cc1)C(=O)/C=C\c1ccccc1` [Example 841, (2Z)-N-{3-[2-({[(4-chlorophenyl)sulfonyl]-2,5-difluoroanilino}methyl)phenoxy]propyl}-N methyl-3-phenyl-2-propenamide], 6.30 to 7.00.

The values above are taken from patent US6967196B1, “Sulfonamide compounds and uses thereof” (Bristol-Myers Squibb Company, priority 1999, dated 2005).
